Experimental data as given in US20060100154A1, “Long-acting gonadotropin-releasing hormone analogs and methods of use thereof” (YEDA RESEARCH AND DEVELOPMENT CO, priority 2005, published 2006).
Square brackets hold non-standard residues; d marks the D form. d(pGlu) = O=C1CC[C@H](C(=O)O)N1

Legend:
LH release = assay: In vivo LH release after intraperitoneal administration; parameters: species or system rat; settings: six h after administration; 0.04 vs 0.4 nmol/rat i.p.
Description: The ability of [D-Lys^6(Emo)]GnRH to bind GnRH receptors and promote LH release in vitro, prompted the evaluation of its in vivo activity.
Blood samples were withdrawn by cardiac puncture under light ether anesthesia at the indicated time intervals, and serum LH levels were determined by RIA as described above (FIG. 6). Results are the mean±SEM of LH concentrations in the serum of five animals/experimental group. The LH concentration was determined using three different dilutions of each serum sample. Similar results were obtained in two other experiments.

αT3-1 cells [1] = assay: DNA fragmentation assay; type: cell-based, mouse; settings: 10 μM, FIG. 10
Description: FIG. 10. DNA cleavage in cells treated with [D-Lys^6(Emo)]GnRH and emodic acid. αT3-1 cells were incubated; in darkness with 10 μM of the tested compounds, washed and illuminated. After 24 h of incubation DNA was isolated and analyzed by gel electrophoresis. Lanes 1, 3 and 5 represent DNA of cells treated with 1% DMSO in PBS, emodic acid or [D-Lys^6(Emo)]GnRH, respectively, followed by illumination. Lane 2, 4 and 6 represent cells treated with 1% DMSO in PBS, emodic acid, or [D-Lys^6(Emo)]GnRH, respectively, in darkness.
αT3-1 cells (×10^6/dish) were incubated in phenol red and serum free complete medium (37° C., 5% CO2) with the tested compounds for 5 h in the dark. Cells were then washed with PBS (×3) and illuminated or remained in darkness as described earlier. The media were then replaced by complete medium and cells were incubated for additional 24 h. DNA was then isolated, using Wizard® genomic DNA purification kit (Promega, Madison, Wis.) following the company's protocol and analyzed by gel electrophoresis (0.4% cross linked agarose, ethidium bromide staining).

αT3-1 cells [2] = assay: In vitro toxicity / phototoxicity (XTT cell survival); type: cell-based, mouse
Description: αT3-1 cells (50,000 cells/well) were plated in 96-well tissue culture plates in 0.1 mL of complete medium. After 24 h the medium was changed and cells were incubated in the same medium (without serum and phenol red) containing different concentrations of the tested compounds for 4 h at 37° C. The cells were then washed (×3) with PBS and illuminated (λmax=400 nm) in PBS. The fluence rate was 14.3 mW cm^−2 with a total fluence of 17 J cm^−2. Following illumination the media were replaced by complete medium and the plates were incubated for additional 24 h at 37° C. Cell survival was determined using the XTT (Biological Industries, Beit-Haemek, Israel) kit following the manufacture's protocol. Values are expressed as % survival.

[3] = Relative hydrophobicity by elution from RP-18 HPLC column; type: physicochemical; settings: percent of buffer B in which the analog was eluted from RP-18 column
From the text: All chemicals and reagents were of analytical grade. Rink amide resin, 9-fluorenylmethoxycarbonyl (Fmoc) protected amino acid derivatives, and all the reagents for solid-phase peptide synthesis were purchased from Novabiochem (Läufelfingen, Switzerland). Side-chain protecting groups employed for peptide synthesis were as follows: Arg, 2,2,4,6,7-pentamethyldihydrobenzofuran-5-sulfonyl (Pbf); His, trityl (Trt); D-Lys, 4-methyltrityl (Mtt) or tert-butyloxycarbonyl (Boc); Trp, tert-butyloxycarbonyl (Boc); Ser and Tyr, tert-butyl (tBu). Reversed phase HPLC was performed on a Spectra-Physics SP-8800 liquid chromatography system equipped with an Applied Biosystems 757 variable wavelength absorbance detector. HPLC prepacked columns were: Lichrocart, containing Lichrosorb RP-18 (250×10 mm; 7 μm, Merck, Darmstadt, Germany) for semi-preparative purification and Lichrospher 100 RP-18 (250×4 mm; 5 μm, Merck, Darmstadt, Germany) and wide pore butyl C4 (250×4.6 mm; 5 μm, J. T. Baker Inc., Phillipsburg, N.J.) for analytical purposes. HPLC purification and analysis were achieved by using a linear gradient established between 0.1% trifluoroacetic acid […] in water as buffer A and 0.1% TFA in 75% aqueous acetonitrile as buffer B. Eluent composition was 10-100% B over 40 mlin, using RP-18 column, and a gradient of 0-100% B over 40 min employing a wide pore butyl (C4) column. N-(2noro-1,4-naphtoqumonyl)-β-alanine (NQ), 1,6,8-Trihydroxy-3-carboxylic acid-anthraquinone (Emo) and 2-hydroxymethyl-anthraquinone hemiglutarate (AntrQ) were synthesized as described^14,24,27 (for chemical structure see FIG. 1).

[4] = system: testes and prostate glands; assay: Long-term treatment of male rats: weight of testes and prostate glands; type: in vivo; settings: 0.1 nmol/rat daily for 7 days vs parent peptide 1 nmol/rat; FIG. 7
Description: Control rats were injected daily with 0.5 mL of PBS. Rats were sacrificed 24 h after the last injection, and the testes and prostate glands were immediately dissected and weighed (FIG. 7). Results are the meant±SEM of the weight of the organs (six animals/experimental group).

[5] = target: T1, rat pituitary GnRH receptors (Rattus norvegicus, UniProt P30969); assay: Displacement binding assay with 125I[D-Lys6]GnRH on rat pituitary membranes; settings: vs [D-Lys6]GnRH
T1 construct: from tissue; host or cells: rat pituitary membranes (Wistar-derived rats)
T1 sequence (P30969 1-327): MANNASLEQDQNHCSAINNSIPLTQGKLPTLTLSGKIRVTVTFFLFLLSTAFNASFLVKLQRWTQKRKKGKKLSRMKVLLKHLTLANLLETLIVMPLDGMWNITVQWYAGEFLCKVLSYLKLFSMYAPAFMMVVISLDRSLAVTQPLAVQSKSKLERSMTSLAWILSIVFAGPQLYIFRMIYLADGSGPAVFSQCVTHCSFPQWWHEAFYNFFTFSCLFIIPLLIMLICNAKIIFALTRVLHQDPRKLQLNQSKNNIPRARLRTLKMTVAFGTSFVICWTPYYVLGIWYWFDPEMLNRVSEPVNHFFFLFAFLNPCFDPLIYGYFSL
Description: Specific binding was calculated by subtracting the non-specific binding from the maximal binding, determined in the absence of any competing peptide. Results are the mean of two experiments carried out in triplicates. SEM values are omitted for clarity (FIG. 3).

[6] = system: primary cultures of rat pituitary cells; assay: LH releasing potency in primary rat pituitary cell cultures; type: cell-based; settings: 4 h, 37° C.; compared to [D-Lys6]GnRH; FIG. 4
Description: The media were then collected and LH concentration were analyzed by double-antibody radioimmunoassay (RIA)^32 using kits kindly supplied by the National Institute of Arthritis, Metabolism and Digestive Diseases (NIMDD). Results (FIG. 4) are expressed in terms of LH-RP-3 rat reference preparation, and are the mean±SEM of LH concentration of two experiments (4 wells/experimental group, each). The basal release after 4 h was 9.41±2 ng/mL.

[7] = target: T2, human serum albumin (HSA) (Homo sapiens, UniProt P02768); assay: Binding to HSA; type: in vitro ADME; settings: 37° C., 3 h; FIG. 8
T2 construct: purchased Sigma, St. Louis, Mo
T2 sequence (P02768 25-609): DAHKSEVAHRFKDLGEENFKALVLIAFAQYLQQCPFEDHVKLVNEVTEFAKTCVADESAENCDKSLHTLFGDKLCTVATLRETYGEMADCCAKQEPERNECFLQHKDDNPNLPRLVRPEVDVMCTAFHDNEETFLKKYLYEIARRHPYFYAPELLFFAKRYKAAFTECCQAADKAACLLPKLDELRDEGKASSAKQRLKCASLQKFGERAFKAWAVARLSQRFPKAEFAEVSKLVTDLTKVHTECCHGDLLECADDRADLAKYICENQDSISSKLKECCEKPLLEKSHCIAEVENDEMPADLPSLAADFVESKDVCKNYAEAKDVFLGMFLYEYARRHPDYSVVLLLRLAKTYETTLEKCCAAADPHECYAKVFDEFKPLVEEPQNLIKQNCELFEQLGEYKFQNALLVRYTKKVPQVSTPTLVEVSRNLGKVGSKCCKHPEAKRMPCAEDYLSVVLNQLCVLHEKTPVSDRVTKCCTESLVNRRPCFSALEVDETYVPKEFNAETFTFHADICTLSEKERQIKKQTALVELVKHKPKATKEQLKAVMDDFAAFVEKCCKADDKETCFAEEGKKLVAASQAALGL
Description: The concentration of HSA in the solution was determined using a molar extinction coefficient of 39,000 M^−1 cm^−1 at 277.5 nm^33. The unbound compound was then separated from the HSA solution by applying it on to a Centricon® concentrator column (Amicon Inc., Beverly, Mass.) with a band pass membrane of […] according to the manufacture's protocol. The HSA bound compound (˜20 μL) was then precipitated by adding it to acetonitrile (1 mL). The supernatant was kept and the precipitate was dissolved in PBS (100 μL) and re-precipitated. The combined supernatants were evaporated, the residue was dissolved in water containing 0.1% TFA (buffer A) and analyzed by HPLC to determine the amount of the tested compounds. Results represent the mean of two experiments (FIG. 8).

[8] = system: primary cultures of rat pituitary cells; assay: Effect of GnRH antagonist on LH secretion stimulated by [D-Lys6(Emo)]GnRH; type: cell-based; settings: [D-Lys6(Emo)]GnRH 20 pM, antagonist 100 nM, 4 h; FIG. 5
Description: To determine the effect of a GnRH antagonist ([D-pyr^1, D-Phe^2, D-Trp^3,6]GnRH) on the induction of LH secretion from primary cultures of rat pituitary cells stimulated by [D-Lys^6(Emo)]GnRH, cells were incubated for 4 h at 37° C. with [D-Lys^6(Emo)]GnRH (20 pM) in the absence or presence of the GnRH antagonist (100 nM). The media were collected and LH concentration was determined by RIA (FIG. 5). Results are the mean±SEM of LH concentrations obtained from two experiments (4 wells/experimental group, each).

| Compound | LH levels relative to group treated with [D-Lys6]GnRH (LH release) | DNA fragmentation in the dark (αT3-1 cells [1]; darkness) | DNA fragmentation upon illumination (αT3-1 cells [1]; illuminated) | phototoxicity to αT3-1 cells (αT3-1 cells [2]; 10 μM, illuminated, FIG. 9) | toxicity to αT3-1 cells in the dark (αT3-1 cells [2]; incubated in the dark) | Hydrophobicity (% B) [3] [% B] | decrease in testicular and ventral prostate gland weights [4] | reduction of affinity to GnRH receptors compared to the parent peptide [5] | LH releasing activity in vitro [6] | binding to HSA [7] | inhibition of [D-Lys6(Emo)]GnRH-induced LH secretion [8] |
| --- | --- | --- | --- | --- | --- | --- | --- | --- | --- | --- | --- |
| CC(C)C[C@H](NC(=O)[C@@H](CCCCNC(=O)c1cc(O)c2c(c1)C(=O)c1cc(O)cc(O)c1C2=O)NC(=O)[C@H](Cc1ccc(O)cc1)NC(=O)[C@H](CO)NC(=O)[C@H](Cc1c[nH]c2ccccc12)NC(=O)[C@H](Cc1c[nH]cn1)NC(=O)[C@@H]1CCC(=O)N1)C(=O)N[C@@H](CCCNC(=N)N)C(=O)N1CCC[C@H]1C(=O)NCC(N)=O [[D-Lys^6(Emo)]GnRH, [D-Lys^6(1,3,8-trihydroxy-6-carboxy-anthraquinone)]GnRH] | about 6 folds | did not cause any DNA fragmentation | but not [D-Lys^6(Emo)]GnRH (lane 5) induced DNA fragmentation | did not exhibit any toxicity | did not show any toxicity | 66 | greater decrease | about 3 fold | highest bioactivity | binds significantly to HSA | – |
| [D-pGlu^1, D-Phe^2, D-Trp^3,6]GnRH ([d(pGlu)][dF][dW]SY[dW]LRPG-NH2; SMILES CC(C)C[C@H](NC(=O)[C@@H](Cc1c[nH]c2ccccc12)NC(=O)[C@H](Cc1ccc(O)cc1)NC(=O)[C@H](CO)NC(=O)[C@@H](Cc1c[nH]c2ccccc12)NC(=O)[C@@H](Cc1ccccc1)NC(=O)[C@H]1CCC(=O)N1)C(=O)N[C@@H](CCCNC(=N)N)C(=O)N1CCC[C@H]1C(=O)NCC(N)=O) [GnRH antagonist] | – | – | – | – | – | – | – | – | – | – | completely inhibited |
